Laboratory results: ChEMBL document CHEMBL1201862, “PubChem BioAssay data set” (2004)
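Five compound concentrations were applied to cells in 96-well plates for 48 hours; endpoints were derived by simple linear interpolation of the resulting dose-response curve. At the GI50, growth is halved.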 Activity calls are given as the source filed them. Rule as the data show it: active = GI50 up to about 1.1 µM and inactive = higher.

Key:
Assay in all cases: inhibition of tumour cell growth, NCI panel, 48 h
IGROV-1 = tested on: IGROV-1
HT-29 = tested on: HT-29
UACC-257 = tested on: UACC-257
SF-268 = tested on: SF-268
MDA-N = tested on: MDA-N
HCC 2998 = tested on: HCC 2998
OVCAR-5 = tested on: OVCAR-5
UO-31 = tested on: UO-31
SW-620 = tested on: SW-620
A498 = tested on: A498
CAKI-1 = tested on: CAKI-1
M14 = tested on: M14
EKVX = tested on: EKVX
SK-MEL-5 = tested on: SK-MEL-5
SK-MEL-28 = tested on: SK-MEL-28
NCI/ADR-RES = tested on: NCI/ADR-RES
SK-OV-3 = tested on: SK-OV-3
SR = tested on: SR
T47D = tested on: T47D
TK-10 = tested on: TK-10

Measured: GI50

Cc1nc2c(Br)cc(Br)cc2c(=O)n1-c1ccccc1N
inactive: IGROV-1 38.3 µM | HT-29 23.9 µM | UACC-257 31 µM | SF-268 50.1 µM | MDA-N 50.9 µM | HCC 2998 35.6 µM | OVCAR-5 28.8 µM | UO-31 20.5 µM | SW-620 44.6 µM | A498 36.9 µM | CAKI-1 28.4 µM | M14 35.4 µM | EKVX 41 µM | SK-MEL-5 18.3 µM | SK-MEL-28 44.4 µM | NCI/ADR-RES 45.9 µM | SK-OV-3 33 µM | SR 37 µM

O=S(=O)(c1ccc(-c2nnc(-c3ccc(F)cc3)o2)cc1)c1ccc(-c2nnc(-c3ccc(F)cc3)o2)cc1
inactive: IGROV-1 > 100 µM | HT-29 > 100 µM | UACC-257 > 100 µM | SF-268 > 100 µM | MDA-N > 100 µM | HCC 2998 > 100 µM | OVCAR-5 > 100 µM | UO-31 > 100 µM | SW-620 > 100 µM | A498 25.5 µM | CAKI-1 > 100 µM | T47D > 100 µM | M14 > 100 µM | EKVX > 100 µM | SK-MEL-5 > 100 µM | NCI/ADR-RES > 100 µM | SK-OV-3 30.4 µM

CC1(C)CC(=O)C(=CNc2nc(-c3ccc(Br)cc3)cs2)C(=O)C1
inactive: IGROV-1 29.6 µM | HT-29 29.9 µM | UACC-257 18.5 µM | MDA-N 37.8 µM | HCC 2998 28.9 µM | OVCAR-5 42.5 µM | UO-31 21.9 µM | SW-620 42.9 µM | TK-10 11.5 µM | CAKI-1 24.9 µM | T47D 32.9 µM | M14 20.5 µM | EKVX 38.7 µM | SK-MEL-5 32.6 µM | SK-MEL-28 34 µM | NCI/ADR-RES 37.8 µM | SK-OV-3 83 µM

O=c1[nH]c2cc([N+](=O)[O-])c(Nc3c4ccccc4nc4ccccc34)c([N+](=O)[O-])c2[nH]1
inactive: HT-29 1.98 µM | UACC-257 4.03 µM | SF-268 3.15 µM | HCC 2998 1.73 µM | OVCAR-5 2.4 µM | UO-31 2.09 µM | SW-620 2.31 µM | A498 2.08 µM | TK-10 1.92 µM | CAKI-1 2.19 µM | T47D 2.49 µM | M14 2.12 µM | EKVX 2.47 µM | SK-MEL-5 2.45 µM | SK-MEL-28 3.27 µM | NCI/ADR-RES 2.41 µM | SK-OV-3 4.04 µM | SR 1.74 µM
active: IGROV-1 0.238 µM

N#C/C(C(=S)Nc1ccccc1)=C(/N)N1CCCC1
inactive: IGROV-1 > 100 µM | HT-29 > 100 µM | UACC-257 > 100 µM | SF-268 > 100 µM | MDA-N > 100 µM | HCC 2998 > 100 µM | OVCAR-5 > 100 µM | UO-31 46.7 µM | SW-620 > 100 µM | A498 > 100 µM | TK-10 > 100 µM | CAKI-1 27.9 µM | M14 > 100 µM | EKVX > 100 µM | SK-MEL-5 > 100 µM | SK-MEL-28 > 100 µM | NCI/ADR-RES > 100 µM | SR > 100 µM

CCCNC(=S)N/C=C1\C(=O)Nc2ccccc2C1=O
inactive: IGROV-1 > 100 µM | HT-29 > 100 µM | UACC-257 > 100 µM | SF-268 > 100 µM | MDA-N > 100 µM | HCC 2998 > 100 µM | OVCAR-5 > 100 µM | UO-31 > 100 µM | SW-620 > 100 µM | A498 > 100 µM | TK-10 > 100 µM | CAKI-1 > 100 µM | T47D > 100 µM | M14 > 100 µM | EKVX > 100 µM | SK-MEL-5 > 100 µM | NCI/ADR-RES > 100 µM | SK-OV-3 > 100 µM

Cc1ccc2c(=O)c(-c3nnc(NC4CCCCC4)s3)c[nH]c2n1
inactive: IGROV-1 > 100 µM | HT-29 > 100 µM | UACC-257 > 100 µM | SF-268 > 100 µM | MDA-N 81.7 µM | OVCAR-5 > 100 µM | UO-31 > 100 µM | SW-620 > 100 µM | A498 > 100 µM | TK-10 > 100 µM | CAKI-1 > 100 µM | T47D 50 µM | M14 > 100 µM | EKVX > 100 µM | SK-MEL-5 40.9 µM | SK-MEL-28 > 100 µM | NCI/ADR-RES > 100 µM

CC(=O)N1N(c2ccc([N+](=O)[O-])cc2)C(=O)C1(C)C
inactive: IGROV-1 20.6 µM | HT-29 16.6 µM | SF-268 29.4 µM | MDA-N 30.5 µM | HCC 2998 15.8 µM | OVCAR-5 23.3 µM | UO-31 17.1 µM | SW-620 13.4 µM | A498 37.9 µM | TK-10 17.1 µM | T47D 39.3 µM | M14 10.8 µM | EKVX 17.3 µM | SK-MEL-5 16.9 µM | SK-MEL-28 17.9 µM | NCI/ADR-RES 30.8 µM | SK-OV-3 48 µM

CC(=N\c1ccncc1)/C(C)=N/c1ccncc1
inactive: IGROV-1 17.3 µM | HT-29 19 µM | UACC-257 36.3 µM | SF-268 30.4 µM | HCC 2998 19 µM | OVCAR-5 17 µM | UO-31 17 µM | SW-620 30.8 µM | A498 34.4 µM | TK-10 35.8 µM | CAKI-1 16.8 µM | T47D 26.2 µM | M14 18.7 µM | EKVX 20.7 µM | SK-MEL-5 19.5 µM | SK-MEL-28 29.1 µM | NCI/ADR-RES 34.4 µM | SK-OV-3 > 100 µM | SR 27.1 µM

COc1cccc2c1C(=O)C=CC2=O
inactive: IGROV-1 12.2 µM | HT-29 11 µM | UACC-257 15.5 µM | SF-268 6.73 µM | HCC 2998 15.3 µM | OVCAR-5 18.9 µM | UO-31 15.4 µM | SW-620 6.18 µM | A498 16.2 µM | TK-10 14.2 µM | CAKI-1 7.66 µM | T47D 2.22 µM | M14 8.49 µM | EKVX 18.5 µM | SK-MEL-5 15.3 µM | SK-MEL-28 17.5 µM | SK-OV-3 21.8 µM
active: SR 0.269 µM

CC1=C2CN(C(=O)OCC(C)C)CCC2C2=C(C(=O)c3ccccc3C2=O)C1C (stereo not drawn)
inactive: IGROV-1 > 10 µM | HT-29 > 10 µM | UACC-257 > 10 µM | SF-268 > 10 µM | MDA-N > 10 µM | HCC 2998 > 10 µM | SW-620 > 10 µM | TK-10 > 10 µM | CAKI-1 > 10 µM | T47D > 10 µM | M14 > 10 µM | EKVX > 10 µM | SK-MEL-5 > 10 µM | SK-MEL-28 > 10 µM | SK-OV-3 > 10 µM | SR > 10 µM

CC1N(O)C(c2ccccc2)C(c2ccccc2)=[N+]1[O-] (stereo not drawn)
inactive: IGROV-1 > 100 µM | HT-29 > 100 µM | UACC-257 > 100 µM | MDA-N > 100 µM | HCC 2998 > 100 µM | OVCAR-5 > 100 µM | UO-31 > 100 µM | SW-620 > 100 µM | A498 > 100 µM | TK-10 > 100 µM | CAKI-1 > 100 µM | M14 > 100 µM | EKVX > 100 µM | SK-MEL-5 > 100 µM | SK-MEL-28 > 100 µM | NCI/ADR-RES > 100 µM | SK-OV-3 > 100 µM | SR > 100 µM

Cc1cccc(/N=C/C=C(\Cl)c2ccc3ccccc3c2)c1
inactive: IGROV-1 20.6 µM | HT-29 21.2 µM | UACC-257 15.7 µM | SF-268 22.9 µM | OVCAR-5 27.8 µM | UO-31 16.2 µM | SW-620 9.46 µM | A498 > 100 µM | TK-10 19.8 µM | CAKI-1 17.2 µM | T47D 4.88 µM | M14 17.1 µM | EKVX 39.5 µM | SK-MEL-5 17.7 µM | SK-MEL-28 17.5 µM | NCI/ADR-RES 17.7 µM | SK-OV-3 23.4 µM | SR 3.88 µM

COc1c(-c2ccccc2)oc2c(CP(=O)(OC)OC)cccc2c1=O
inactive: IGROV-1 > 100 µM | UACC-257 > 100 µM | MDA-N > 100 µM | HCC 2998 > 100 µM | OVCAR-5 > 100 µM | UO-31 11.7 µM | A498 > 100 µM | TK-10 > 100 µM | CAKI-1 2.12 µM | T47D > 100 µM | M14 > 100 µM | EKVX > 100 µM | SK-MEL-5 > 100 µM | SK-OV-3 > 100 µM | SR > 100 µM

O=C=NCCCCCCN1C(=O)N2C(c3ccccc3)N(CCCCCCN=C=O)C(=O)N2C1c1ccccc1 (stereo not drawn)
inactive: IGROV-1 > 100 µM | HT-29 > 100 µM | UACC-257 > 100 µM | SF-268 > 100 µM | MDA-N > 100 µM | HCC 2998 > 100 µM | OVCAR-5 > 100 µM | UO-31 > 100 µM | SW-620 > 100 µM | A498 > 100 µM | TK-10 > 100 µM | CAKI-1 > 100 µM | M14 > 100 µM | EKVX > 100 µM | SK-MEL-5 > 100 µM | SK-MEL-28 > 100 µM | NCI/ADR-RES > 100 µM | SR 65.2 µM

COc1ccc(O)c(/C=N\Nc2ccccc2)c1
active: HCC 2998 < 0.01 µM | T47D 0.402 µM
inactive: HT-29 15.6 µM | UACC-257 16.7 µM | SF-268 13.1 µM | OVCAR-5 19.5 µM | UO-31 4.14 µM | SW-620 5.41 µM | A498 15.5 µM | M14 19 µM | EKVX 39.7 µM | SK-MEL-5 22.5 µM | SK-MEL-28 25.4 µM | NCI/ADR-RES 18.6 µM | SK-OV-3 > 100 µM
